Assays:
[1] = Acute toxicity in rats, stomach probe; assay type: in vivo; conditions: for Toxic symptoms or death (in words): doses up to 6 g/kg; for LD50: rat, in vivo, po
Experimental: (§1) This was tested on mice and rats after administration by stomach probe. […] The LD 50 must therefore be above 6 g/kg.

[2] = test system: conjunctiva, cornea, iris, crystalline lens, vitreous humour and retina; experiment: Ocular tolerability after oral administration; assay type: in vivo, New Zealand rabbit; conditions: single (200 mg/kg) or repeated (100 mg/kg, 7 days) oral administration
Experimental: The ocular tolerability of compounds I and II was measured in New Zealand rabbits on the anterior segment (conjunctiva, cornea, iris and crystalline lens) and on the posterior segment (vitreous humour and retina) after oral administration, local application and intra-ocular injection.
Both products were administered by stomach probe, either in a single dose of 200 mg/kg or in repeated doses of 100 mg/kg for 7 days. Surveys were made before and 1, 2 and 4 hours after acute administration, on the third and seventh days after repeated administration and 5 days after suspension of treatment.

[3] = test system: vessels of the ciliary body (haemato-ophthalmic barrier); experiment: Permeability of the haemato-ophthalmic barrier induced by paracentesis in the rabbit (Evans Blue dye method); assay type: in vivo, New Zealand albino rabbit; conditions: for Amount of dye coming out of the vessels of the ciliary body (in words): single dose of 100 or 200 mg/kg, two or four hours after administration
Experimental: (§2) The effect on the permeability of the haemato-ophthalmic barrier was measured by inducing an increase in the permeability of the vessels of the ciliary body, either by paracentesis or by instillation of sodium hydroxide into the conjunctival sac. The reduction in permeability induced by oral administration of the products under examination was then measured.
The experiment was carried out on 80 New Zealand albino rabbits, average body weight 2.8 kg, divided into eight groups each of ten animals.
The vasal permeability was measured by the dye method: 1 ml of Evans Blue in a concentration of 0.5% was injected into the marginal vein of the auricle.
After 10 minutes the left eye was subjected to paracentesis and after 12 minutes a sample of aqueous humour was taken. The quantity of Evans Blue in the sampled aqueous humour was used to assess the permeability of the haemato-ophthalmic barrier. Immediately afterwards, compounds I and II were administered in doses of 100 or 200 mg/kg by stomach probe.
Two or four hours after administration, paracentesis was carried out on the right eye and after 12 minutes a sample of aqueous humour was taken.
The quantity of Evans Blue in the aqueous humour was evaluated by spectrophotometer reading at 623 nm. […]

[4] = test system: vessels of the ciliary body (haemato-ophthalmic barrier); experiment: Permeability of the haemato-ophthalmic barrier induced by histamine (corneal lens method, Evans Blue); assay type: in vivo, New Zealand rabbit; conditions: for Permeability of the vessels of the ciliary body caused by histamine (in words) / Effects, significance (in words): 100 mg/kg by gavage; for Effects, significance (in words): after 2 and 4 hours; for Evans Blue in aqueous humour, m ± sd / Percentage variation of Evans Blue relative to time 0: 100 mg/kg os
Experimental: The experiment was carried out on […] New Zealand rabbits, average body weight 2.5 kg, divided into three groups of ten animals each.
The vasal permeability was measured by the dye method: 1 ml of Evans Blue in a concentration of 0.5% was injected into the marginal vein of the ear. After 10 min a soft corneal lens embedded in a 2% solution of histamine hydrochloride was applied for 30 min to the left eye.
The left eye was subjected to paracentesis and a sample of aqueous humour was taken.
Immediately after, the substances were given by gavage at the dose of 100 mg/kg. Two or four hours after administration a lens embedded with histamine as described before was applied for 30 min on the right eye. Paracentesis was carried out and aqueous humor was taken.
The quantity of Evans Blue in the aqueous humor was evaluated as described in 1(i).

[5] = Acute toxicity in mice, stomach probe; assay type: in vivo; conditions: for Toxic symptoms or death (in words): doses up to 6 g/kg; for LD50: mouse, in vivo, po
Experimental: as §1

[6] = test system: vessels of the ciliary body (haemato-ophthalmic barrier); experiment: Permeability of the haemato-ophthalmic barrier induced by NaOH in the rabbit (Evans Blue); assay type: in vivo, New Zealand rabbit; conditions: seven days; for Percentage variation of Evans Blue: vs controls; for Reduction in permeability, significance (in words): 100 mg/kg os; for Permeability of the vessels of the ciliary body caused by the irritating agent (in words): 50 or 100 mg/kg os
Experimental: as §2
The experiment was carried out on 50 New Zealand rabbits, average body weight 2.2 kg. The substance was administered once a day for seven days in doses of 50 or 100 mg/kg. A control group was treated with tap water.
Thirty minutes after the last administration, 1 ml of a 0.5% solution of Evans Blue was administered in the marginal vein of the ear. After 30 minutes, inflammation of the eye tissue was produced by instilling two drops of 0.25N sodium hydroxide in the conjunctival sac. Two hours later the animal was anesthesized and a sample of aqueous humour was taken in order to measure the proportion of dye.

[7] = 100 mg/kg os, 1 administration, 2 hours
[8] = 100 mg/kg os, 1 administration, 4 hours
[9] = 100 mg/kg os, 7 administrations, 24 hours after last
[10] = 200 mg/kg os, 1 administration, 2 hours
[11] = 200 mg/kg os, 1 administration, 4 hours

SMILES | Toxic symptoms or death (in words) [1] | LD50 [1] [mg/kg] | Modifications in ocular structures (in words) [2] | Evans Blue in aqueous humour, m ± s.d. [3, 7] [µg/mL] | Percentage variation of Evans Blue relative to time 0 [3, 7] [%] | Evans Blue in aqueous humour, m ± s.d. [3, 8] [µg/mL] | Percentage variation of Evans Blue relative to time 0 [3, 8] [%] | Evans Blue in aqueous humour, m ± s.d. [3, 9] [µg/mL] | Percentage variation of Evans Blue relative to time 0 [3, 9] [%] | Evans Blue in aqueous humour, m ± s.d. [3, 10] [µg/mL] | Percentage variation of Evans Blue relative to time 0 [3, 10] [%] | Evans Blue in aqueous humour, m ± s.d. [3, 11] [µg/mL] | Percentage variation of Evans Blue relative to time 0 [3, 11] [%] | Amount of dye coming out of the vessels of the ciliary body (in words) [3] | Permeability of the vessels of the ciliary body caused by histamine (in words) [4] | Effects, significance (in words) [4] | Evans Blue in aqueous humour, m ± sd ([4]; 2 hours) [µg/mL] | Percentage variation of Evans Blue relative to time 0 ([4]; 2 hours) [%] | Evans Blue in aqueous humour, m ± sd ([4]; 4 hours) [µg/mL] | Percentage variation of Evans Blue relative to time 0 ([4]; 4 hours) [%] | further results
Oc1ccc(-c2[o+]c3cc(O)cc(O)c3cc2O)cc1 [Compound I, pelargonidin] | did not cause toxic symptoms or death | > 6000 | did not induce modifications in the conjunctive, cornea, iris, crystalline lens, vitrous humour or retina | 34.9 ± 8.5 | -15.4 | 46.9 ± 17.5 | -15.5 | 44.2 ± 11.7 | -22.4 | 42.2 ± 15.0 | -16.4 | 44.8 ± 20.2 | -15.6 | reduced in a statistically significant manner | reduced permeability of the vessels of the ciliary body caused by histamine | statistically significant compared with the basal values | 86.2 ± 6.1 | -19.0 | 75.9 ± 10.3 | -29.9 | Toxic symptoms or death (in words) [5]: did not cause toxic symptoms or death; LD50 [5]: > 6000 mg/kg; Evans Blue, m ± s.e. ([6]; 50 mg/kg/day os): 5.8 ± 0.8 µg/mL; Percentage variation of Evans Blue ([6]; 50 mg/kg/day os): -2%; Reduction in permeability, significance (in words) [6]: statistically significant compared with the controls; Evans Blue, m ± s.e. ([6]; 100 mg/kg/day os): 3.5 ± 0.6 µg/mL; Percentage variation of Evans Blue ([6]; 100 mg/kg/day os): -40%; Permeability of the vessels of the ciliary body caused by the irritating agent (in words) [6]: dose-dependent reduction in the permeability of the vessels of the ciliary body
Oc1cc(O)c2cc(O)c(-c3cc(O)c(O)c(O)c3)[o+]c2c1 [Compound II, delphinidin] | did not cause toxic symptoms or death | > 6000 | did not induce modifications in the conjunctive, cornea, iris, crystalline lens, vitrous humour or retina | 41.5 ± 7.9 | -14.1 | 45.6 ± 9.7 | -14.9 | 42.5 ± 13.3 | -20.8 | 45.1 ± 10.3 | -15.1 | 45.9 ± 12.2 | -15.1 | reduced in a statistically significant manner | reduced permeability of the vessels of the ciliary body caused by histamine | statistically significant compared with the basal values | 82.0 ± 7.0 | -25.3 | 68.8 ± 8.7 | -31.7 | Toxic symptoms or death (in words) [5]: did not cause toxic symptoms or death; LD50 [5]: > 6000 mg/kg; Evans Blue, m ± s.e. ([6]; 50 mg/kg/day os): 5.1 ± 0.7 µg/mL; Percentage variation of Evans Blue ([6]; 50 mg/kg/day os): -14%; Reduction in permeability, significance (in words) [6]: statistically significant compared with the controls; Evans Blue, m ± s.e. ([6]; 100 mg/kg/day os): 3.2 ± 0.4 µg/mL; Percentage variation of Evans Blue ([6]; 100 mg/kg/day os): -45%; Permeability of the vessels of the ciliary body caused by the irritating agent (in words) [6]: dose-dependent reduction in the permeability of the vessels of the ciliary body

— patent publication US5196449A, “Methods and pharmaceutical compositions for the treatment of ophthalmic diseases” (IdB Holding SpA, priority 1989, dated 1993)
